{"source": "ChEMBL document CHEMBL1201862", "about": "“PubChem BioAssay data set” (2004)", "target": "Envelope glycoprotein gp160 (Human immunodeficiency virus 1, UniProt Q6QLK5)", "sequence (Q6QLK5 whole entry, the tested form may be a part)": "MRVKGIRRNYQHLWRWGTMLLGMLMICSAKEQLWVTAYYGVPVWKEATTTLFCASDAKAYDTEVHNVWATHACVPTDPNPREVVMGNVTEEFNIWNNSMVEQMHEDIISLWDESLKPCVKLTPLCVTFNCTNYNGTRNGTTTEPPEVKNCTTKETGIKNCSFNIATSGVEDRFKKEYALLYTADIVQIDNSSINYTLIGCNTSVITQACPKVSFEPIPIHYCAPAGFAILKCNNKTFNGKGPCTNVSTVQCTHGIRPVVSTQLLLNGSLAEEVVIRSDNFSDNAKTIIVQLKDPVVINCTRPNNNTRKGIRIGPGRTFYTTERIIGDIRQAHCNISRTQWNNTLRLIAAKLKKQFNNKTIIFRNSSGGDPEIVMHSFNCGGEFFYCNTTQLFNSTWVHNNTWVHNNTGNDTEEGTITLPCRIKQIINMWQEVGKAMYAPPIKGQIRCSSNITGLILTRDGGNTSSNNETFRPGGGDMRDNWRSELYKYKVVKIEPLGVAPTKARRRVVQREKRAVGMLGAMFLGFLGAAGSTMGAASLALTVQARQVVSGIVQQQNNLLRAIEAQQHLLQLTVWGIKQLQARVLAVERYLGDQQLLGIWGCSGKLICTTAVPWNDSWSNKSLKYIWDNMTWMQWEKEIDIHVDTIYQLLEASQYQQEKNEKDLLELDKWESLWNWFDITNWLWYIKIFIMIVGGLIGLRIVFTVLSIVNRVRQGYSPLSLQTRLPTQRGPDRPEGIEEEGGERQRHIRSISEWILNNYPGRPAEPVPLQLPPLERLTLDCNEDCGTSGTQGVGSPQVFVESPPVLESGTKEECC", "assay": "inhibitors of HIV fusion peptide binding, primary screen, biochemical, uHTS, fluorescence dequenching (AID 1986)", "note": "Calls of active or inactive are those of the source. Rule as the data show it: actives have a measured IC50 and inactives only a lower limit."}
{"compound": "COc1ccc(-c2nn(-c3ccccc3)cc2/C=C\\C(=O)Nc2ccc(C(=O)O)cc2)cc1", "values": [{"measurement": "IC50", "result": "18.3 µM (active)"}]}
{"compound": "CC1=C(C(=O)Nc2ccccc2)C(c2ccc(Cl)cc2)n2c(s/c(=C/c3cccc(OCC(=O)O)c3)c2=O)=N1", "note": "(configuration not stated)", "values": [{"measurement": "IC50", "result": "16.8 µM (active)"}]}
